Assay results taken from patent US7491819B1 (priority 2004, dated 2009).

Assays:
HIV-1 303B = assay: microbe, parasite or virus in culture; format: cell-based; settings: for EC50: Human immunodeficiency virus 1, MT2, 120 h; for overall antiviral effect of the two-drug combination with Example 19 (in words): classification from combination indices and confidence intervals; for Combination Indices at 50% HIV Inhibition (Confidence Interval) / Combination Indices at 75% HIV Inhibition (Confidence Interval) / Combination Indices at 90% HIV Inhibition (Confidence Interval): in combination with Example 19, 95% CI in parenthesis
Procedure: Virus and cell lines. The T-cell line, MT-2, was obtained through the AIDS Research and Reference Reagent Program. MT-2 cells were sub-cultured twice a week in RPMI 1640 medium supplemented with 10% fetal bovine serum, 2 mM L-glutamine, and 10 mM HEPES buffer pH 7.5. The HIV-1303B virus is a molecular clone derived from the NL4-3 strain of HIV-1 that was obtained from the NIH AIDS Research and Reference Reagent Program. For combinations with enfuvirtide, the NL36G virus was used. […] Virus stocks were made by transfecting 293T cells with a proviral DNA clone using LipofectAMINE PLUS (Invitrogen), according to the manufacturer's instructions. Three days post-transfection, virus was harvested and passaged once in MT-2 cells before titration in MT-2 cells.
Chemicals. Example 19, atazanavir, didanosine, stavudine, efavirenz, and enfuvirtide (T-20) were synthesized by Bristol-Myers Squibb using published or known reactions. […] Tenofovir was tested as tenofovir disopoxil fumarate. Zidovudine and zalcitabine were purchased from Sigma, and emtricitabine from Moravek Biochemicals.
Drug Susceptibility and Cytotoxicity Assays. For drug susceptibility assays, MT-2 cells were infected with HIV-1 303B (or NL36G), at an MOI of 0.001, and seeded into 96-well microtiter plates (2.5×10^5 cells/ml) containing serial dilutions of test compounds. […] Each drug ratio consisted of an array of 3-fold serial dilutions, and was performed with eight or more replicas on separate multi-well plates. HIV infected cells were incubated at 37° C. in 5% CO2, and on day five post-infection, the extent of virus replication was measured by determining cell viability using the CellTiter 96 Aqueous Non-Radioactive Cell Proliferation Assay (Promega). […] Cytotoxicity assays were performed in parallel with the combination experiments. Here, uninfected cells were exposed to the same drug combinations, and assayed after five days for cell viability using the MTS assay.
Analysis of Drug Combination Effects. For determination of combination index (CI) values, drugs were diluted in a fixed ratio and multiple ratios were analyzed. The drug serial dilutions spanned a range of concentrations near the EC50 value of each compound, so that equivalent antiviral activities could be compared. The normalized responses from each therapy are fit to the four-parameter logistic model with a common minimum and maximum across all therapies. Conceptually, this equation can be written as
In this equation, Fa stands for “fraction affected,” and represents the fraction of the viral load that has been inactivated. […] The EC50, represented by the Ci in the above equation, is the drug concentration that is expected to reduce the amount of virus by 50%, and the Bi are the parameters that reflects the slope of the concentration-response curve. For this assay, A is the bottom plateau common to all curves, D is the common top plateau, Bj is the “slope” parameter for the jth therapy, and Cj is the concentration that produces an effect equal to the average of A and D for the jth therapy. Therapies 1 and 2 correspond to mono therapies 1 and 2, respectively. Therapies 3, 4, and 5 correspond to the three combination therapies. EC50 values for each drug were determined from the single drug experiments, using the above equation. The equation was fit using a nonlinear regression routine (Proc Nlin) in PC SAS version 8.2 (SAS Institute Inc.).
To assess antiviral effects of different drug combination treatments, combination indices (CIs) were calculated according to Chou and Rideout. The combination index was computed as
In this equation [Dm]1 and [Dm]2 are the concentrations of drugs that would individually produce a specific level of effect, while [D]1 and [D]2 are the concentrations of drugs in combination that would produce the same level of effect.
Theoretically, additivity is implied if the CI is equal to one, synergy if the CI is less than one, and antagonism if the CI is greater than one.

HIV-integrase = target: T1, HIV-integrase (Human immunodeficiency virus type 1 group M subtype B, UniProt P12497); assay: HIV-Integrase Inhibition Activity (SPA bead strand-transfer assay); format: biochemical; settings: Table 1; read-out: Activity (HIV-integrase inhibition, IC50 class)
T1 construct: Recombinant integrase (0.26 ng) was incubated with the beads
Outline: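 Biotin-labelled substrate DNA (5 pmole) bound to streptavidin SPA beads, preloaded with recombinant integrase (0.26 ng) for 90 min at 37° C, then washed. Inhibitors and 0.1 fmol P33-labelled target DNA added; reaction stopped with 10 mM EDTA. Integration read as scintillation CPM.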

[1] = EC50 ratio Example 19:comparator 1:1
[2] = EC50 ratio Example 19:comparator 1:2.5
[3] = EC50 ratio Example 19:comparator 2.5:1

Row | SMILES | EC50 (HIV-1 303B) [nM] | overall antiviral effect of the two-drug combination with Example 19 (in words) (HIV-1 303B) | Combination Indices at 50% HIV Inhibition (Confidence Interval) (HIV-1 303B; [1]) | Combination Indices at 75% HIV Inhibition (Confidence Interval) (HIV-1 303B; [1]) | Combination Indices at 90% HIV Inhibition (Confidence Interval) (HIV-1 303B; [1]) | Combination Indices at 50% HIV Inhibition (Confidence Interval) (HIV-1 303B; [2]) | Combination Indices at 75% HIV Inhibition (Confidence Interval) (HIV-1 303B; [2]) | Combination Indices at 90% HIV Inhibition (Confidence Interval) (HIV-1 303B; [2]) | Combination Indices at 50% HIV Inhibition (Confidence Interval) (HIV-1 303B; [3]) | Combination Indices at 75% HIV Inhibition (Confidence Interval) (HIV-1 303B; [3]) | Combination Indices at 90% HIV Inhibition (Confidence Interval) (HIV-1 303B; [3]) | IC50 (HIV-integrase) [nM]
1 | O=C1Nc2ccc(Cl)cc2[C@@](C#CC2CC2)(C(F)(F)F)O1 [Efavirenz, efavirenz] | 1.6 | synergism at most effective concentrations and molar ratios | 0.83 (0.75, 0.92) | 0.76 (0.64, 0.88) | 0.70 (0.54, 0.85) | 0.95 (0.86, 1.04) | 0.93 (0.85, 1.02) | 0.93 (0.79, 1.06) | 1.01 (0.92, 1.10) | 0.96 (0.83, 1.10) | 0.94 (0.73, 1.14) | 
2 | COC(=O)N[C@H](C(=O)N[C@@H](Cc1ccccc1)[C@@H](O)CN(Cc1ccc(-c2ccccn2)cc1)NC(=O)[C@@H](NC(=O)OC)C(C)(C)C)C(C)(C)C [Atazanavir, atazanavir] | 10 | confidence interval is below one at all concentrations and effective levels | 0.87 (0.79, 0.96) | 0.67 (0.55, 0.80) | 0.52 (0.37, 0.67) | 0.65 (0.51, 0.78) | 0.45 (0.31, 0.58) | 0.31 (0.19, 0.44) | 0.78 (0.69, 0.86) | 0.60 (0.54, 0.67) | 0.47 (0.40, 0.54) | 
3 | O=c1[nH]cnc2c1ncn2[C@H]1CC[C@@H](CO)O1 [Didanosine, didanosine] | 10700 | synergistic | 0.58 (0.53, 0.63) | 0.47 (0.35, 0.60) | 0.39 (0.22, 0.56) | 0.56 (0.51, 0.62) | 0.46 (0.40, 0.52) | 0.38 (0.32, 0.44) | 0.50 (0.46, 0.54) | 0.49 (0.44, 0.53) | 0.48 (0.42, 0.54) | 
4 | Nc1ccn([C@H]2CC[C@@H](CO)O2)c(=O)n1 [Zalcitabine, zalcitabine] | 124 | synergistic to additive | 0.61 (0.48, 0.73) | 0.56 (0.39, 0.73) | 0.53 (0.28, 0.79) | 0.55 (0.44, 0.66) | 0.40 (0.31, 0.49) | 0.30 (0.18, 0.42) | 0.80 (0.62, 0.97) | 0.82 (0.58, 1.07) | 0.86 (0.46, 1.26) | 
5 | CC(C)c1nc(CN(C)C(=O)N[C@H](C(=O)N[C@@H](Cc2ccccc2)C[C@H](O)[C@H](Cc2ccccc2)NC(=O)OCc2cncs2)C(C)C)cs1 [Ritonavir, ritonavir] | 48 | additive relationship with Example 19 cannot be ruled out | 0.80 (0.67, 0.93) | 0.57 (0.41, 0.73) | 0.44 (0.23, 0.65) | 0.73 (0.59, 0.88) | 0.64 (0.48, 0.80) | 0.61 (0.38, 0.85) | 0.92 (0.72, 1.11) | 0.72 (0.50, 0.93) | 0.59 (0.32, 0.87) | 
6 | CC1(C)OCCn2c1nc(C(=O)NCc1ccc(F)cc1S(=O)(=O)N1CCC1)c(O)c2=O [Example 111, Pyrimido[2,1-c][1,4]oxazine-2-carboxamide, N-[[2-(1-azetidinylsulfonyl)-4-fluorophenyl]methyl]-4,6,7,9-tetrahydro-3-hydroxy-9,9-dimethyl-4-oxo-] |  |  |  |  |  |  |  |  |  |  |  | 2 to 100
7 | CC1(C)OCCn2c1nc(C(=O)NCc1ccc(F)c3ccccc13)c(O)c2=O [Example 40, Pyrimido[2,1-c][1,4]oxazine-2-carboxamide, N-[(4-fluoro-1-naphthalenyl)methyl]-4,6,7,9-tetrahydro-3-hydroxy-9,9-dimethyl-4-oxo-] |  |  |  |  |  |  |  |  |  |  |  | 2 to 100
8 | CC1(C)OCCn2c1nc(C(=O)NCc1cc(F)ccc1-n1cncn1)c(O)c2=O [Example 54, Pyrimido[2,1-c][1,4]oxazine-2-carboxamide, N-[[5-fluoro-2-(1H-1,2,4-triazol-1-yl)phenyl]methyl]-4,6,7,9-tetrahydro-3-hydroxy-9,9-dimethyl-4-oxo-e] |  |  |  |  |  |  |  |  |  |  |  | 2 to 100
9 | CC1(C)OCCn2c1nc(C(=O)NCc1ccccc1-c1ccc(N3CCOCC3)nc1)c(O)c2=O [Example 156, Pyrimido[2,1-c][1,4]oxazine-2-carboxamide, 4,6,7,9-tetrahydro-3-hydroxy-9,9-dimethyl-N-[[2-[6-(4-morpholinyl)-3-pyridinyl]phenyl]methyl]-4-oxo-] |  |  |  |  |  |  |  |  |  |  |  | 2 to 100
10 | CN(CCO)C(=O)c1ncn(-c2cc(F)ccc2CNC(=O)c2nc3n(c(=O)c2O)CCOC3(C)C)n1 [Example 67, Pyrimido[2,1-c][1,4]oxazine-2-carboxamide, N-[[4-fluoro-2-[3-[[(2-hydroxyethyl)methylamino]carbonyl]-1H-1,2,4-triazol-1-yl]phenyl]methyl]-4,6,7,9-tetrahydro-3-hydroxy-9,9-dimethyl-4-oxo-] |  |  |  |  |  |  |  |  |  |  |  | 2 to 100
11 | Cc1ncn(-c2ccc(CNC(=O)c3nc4n(c(=O)c3O)CCOC4(C)C)c(F)c2)n1 [Example 83, Pyrimido[2,1-c][1,4]oxazine-2-carboxamide, N-[[2-fluoro-4-(3-methyl-1H-1,2,4-triazol-1-yl)phenyl]methyl]-4,6,7,9-tetrahydro-3-hydroxy-9,9-dimethyl-4-oxo-] |  |  |  |  |  |  |  |  |  |  |  | > 1000
12 | C/C(N)=C/C(=O)c1cc(F)ccc1CNC(=O)c1nc2n(c(=O)c1O)CCOC2(C)C [Example 211, Pyrimido[2,1-c][1,4]oxazine-2-carboxamide, N-[[2-[(2Z)-3-amino-1-oxo-2-butenyl]-4-fluorophenyl]methyl]-4,6,7,9-tetrahydro-3-hydroxy-9,9-dimethyl-4-oxo-] |  |  |  |  |  |  |  |  |  |  |  | 2 to 100
13 | CC1(C)OCCn2c1nc(C(=O)NCc1ccc(F)cc1-n1nccn1)c(O)c2=O [Example 57, Pyrimido[2,1-c][1,4]oxazine-2-carboxamide, N-[[4-fluoro-2-(2H-1,2,3-triazol-2-yl)phenyl]methyl]-4,6,7,9-tetrahydro-3-hydroxy-9,9-dimethyl-4-oxo-] |  |  |  |  |  |  |  |  |  |  |  | 2 to 100
